Tests used:
TPOR/4Rα hybrid receptor = test: Ba/F3 luciferase reporter gene assay, TPO competition (antagonist activity); format: cell-based, human; details: 5 nM TPO and 500 nM of each compound; FIG. 3
Method: The expression vector for the TPOR/4Rα hybrid receptor, pcDNATPOR/4Rα, was constructed as follows. A PCR reaction was performed on a cDNA clone containing the human TPO receptor coding sequence using oligonucleotides TpoR-Xho-lo (5′-[…]-3′; SEQ ID NO.: 18) and TpoR-Xho-up (5′-[…]-3′; SEQ ID No.: 19). The resulting PCR product was digested with XhoI and ligated into similarly digested vector pASKcDNA-NH to yield pASKcDNA-NH-TPOR. pASKcDNA-NH resulted from the subcloning of an NheI/HindIII fragment of pcDNA/4Rα (Krause et al., 2004) in pASK21TETIsendc1/2 (Christmann et al., 1999). From the vector pASKcDNA-NH-TPOR the NheI/HindIII fragment containing the TPOR coding sequence was ligated to similarly digested pcDNA/4Rα to yield pcDNATPOR/4Rα. The STAT6 reporter gene construct pIεTATALuc was generated by insertion of a synthetic Hind III/Bam HI fragment representing the entire promoter/enhancer-sequence from the IL-4 responsive region of the human Iε promoter (Ezernieks et al., 1996) into luciferase expression plasmid pTATALuc+ (Altschmied et al., 1997).
The murine pre-B cell line Ba/F3 was cultured as described (Lischke et al., 1995). Cells were transfected using the cell line Nucleofector™ kit V (Amaxa, Germany). Briefly, 8×10^6 cells were starved for 2 h in RPMI 1640/10% FCS, centrifuged and resuspended in 100 μl of transfection reagent V supplemented with 4 μg of expression vector pcDNATPOR/4Rα and 1 μg of reporter gene construct pIεTATALuc. Transfection was performed with the Nucleofector™ device applying program T16. Each transfection batch was recovered in 3.5 ml RPMI 1640/10% FCS and seeded at 2×10^5 cells/100 μl per well in a 96-well cell culture plate. Cells were left untreated for 1 h and then supplemented with various concentrations of hTPO (Immunotools, Germany) and individual microprotein candidates, respectively, to a total volume of 200 μl. For TPO competition assays cell aliquots were preincubated with individual microprotein samples 1 hour before stimulation with hTPO. After incubation for 12 h at 37° C., 5% CO2, cell lysates were prepared and luciferase activity was measured as described previously (Krause et al., 2004).
These cells were transfected with a gene encoding a fusion of the hTPOR extracellular domain and the intracellular 4Rα domain from human […] and co-transfected with a reporter gene construct pIεTATALuc (Krause et al., 2004). […] The same result was obtained for SE-AG-TP-040 in some assays. On the other hand, agonistic activity was shown for all the microproteins so far tested (Table 1).

platelet count = test: In vivo platelet expansion test; details: Balb/c mice, 10 and 1000 μg/kg twice daily s.c., after 5 days; FIG. 7
Method: To assess the in vivo function of SE-ET-TP-020, Balb/c mice (n=5) were treated twice daily with 10 and 1000 μg/kg, respectively, SE-ET-TP-020 by subcutaneous injection. After 5 days, platelet count was measured in comparison to corresponding placebo experiments.

TPOR/4Rα hybrid receptor, sequence (P40238 26-491 limits assumed): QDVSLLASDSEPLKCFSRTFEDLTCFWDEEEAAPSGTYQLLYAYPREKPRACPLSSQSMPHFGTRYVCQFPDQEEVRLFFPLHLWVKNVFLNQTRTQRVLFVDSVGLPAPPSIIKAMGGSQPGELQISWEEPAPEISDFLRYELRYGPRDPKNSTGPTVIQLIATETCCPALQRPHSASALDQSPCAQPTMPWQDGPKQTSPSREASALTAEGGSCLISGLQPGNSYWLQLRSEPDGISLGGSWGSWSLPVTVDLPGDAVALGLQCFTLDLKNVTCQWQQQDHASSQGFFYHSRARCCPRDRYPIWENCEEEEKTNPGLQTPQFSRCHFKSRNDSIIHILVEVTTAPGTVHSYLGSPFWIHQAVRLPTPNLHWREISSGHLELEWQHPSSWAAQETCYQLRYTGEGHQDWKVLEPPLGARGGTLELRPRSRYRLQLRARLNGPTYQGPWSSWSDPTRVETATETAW

| Substance | Inhibition of TPO receptor activation (TPO antagonist) (TPOR/4Rα hybrid receptor) | Platelet count versus placebo (platelet count) |
| --- | --- | --- |
| GCiegptlrqwlaaCKQDSDCLAGCVCGPNGFCGS (GCIEGPTLRQWLAACKQDSDCLAGCVCGPNGFCGS) [SE-ET-TP-030] | able to act as TPO antagonists |  |
| iegptlrqwlaara (IEGPTLRQWLAARA) [SE-LN-TP-020, reference compound] | able to act as TPO antagonists |  |
| GCiegptlrqwlaaraCKQDSDCLAGCVCGPNGFCGS (GCIEGPTLRQWLAARACKQDSDCLAGCVCGPNGFCGS) [SE-ET-TP-020] | able to act as TPO antagonists | doubling of the platelet count |
| GCVRLHESCLGQQVPCCDPAATCGGTALAiegptlrqwlaaraCKGS (GCVRLHESCLGQQVPCCDPAATCGGTALAIEGPTLRQWLAARACKGS) [SE-AG-TP-040] | able to act as TPO antagonists |  |
| GCVRLHESCLGQQVPCCDPAATCiegptlrqwlaaraCKGS (GCVRLHESCLGQQVPCCDPAATCIEGPTLRQWLAARACKGS) [SE-AG-TP-030] | able to act as TPO antagonists |  |
